Experimental data published in patent US20240207457A1, “CANCER-SPECIFIC POLYPEPTIDE AND USE THEREOF” (THE CATHOLIC UNIVERSITY OF KOREA INDUSTRY-ACADEMIC …, priority 2021, published 2024).
Where no end group is shown, it is not given here.

How the values were obtained:
[1] = tested on: tumor tissue; test: Tumor tissue treated with FITC-bound target and negative control peptide; settings: peptides binding to FITC; FIG. 13
Protocol: To confirm the tumor-targeting ability of the target peptide, the tumor tissue was treated with both the target peptide and a negative control peptide, not having the attachment ability to tumors, binding to FITC. The negative control peptide is a peptide made by randomly mixing the amino acid positions of the […] peptide sequence “QLMRPPV” (SEQ ID NO: 2).

[2] = tested on: HEK293T kidney cells not containing the LGR5 receptor; test: Immunochemical staining of FITC-peptide in HEK293T cells; type: cell-based; settings: bound to FITC, FIG. 3
Source text: (§1) To confirm the attachment abilities, phage No. 24 and the peptide were each independently bound to FITC to perform immunochemical staining.

[3] = tested on: AGS, MKN45, and MKN28, the gastric cancer cell lines (vs CCD841 normal colonic epithelial cell line); test: Immunochemical staining of FITC-bound phage and peptide (attachment ability); type: cell-based; settings: bound to FITC, FIG. 2
Source text: as §1

[4] = tested on: MKN45 gastric cancer cells vs CCD841 normal cells; test: FITC fluorescence density by flow cytometer; type: cell-based; settings: 25, 50, and 100 µM for 1 hour, FIGS. 5A and 5B
Protocol: In addition, after treating each of the CCD841 cells and the MKN45 cells with FITC-peptide at a concentration of 25, 50, and 100 µM for 1 hour, the FITC fluorescence density was measured using a flow cytometer.

[5] = tested on: CCD841 cells and MKN45 cells; test: Fluorescence density saturation of FITC-peptide; type: cell-based; settings: FIG. 4
Protocol: To confirm the maximum fluorescence absorption capacity of FITC-peptide, CCD841 cells and MKN45 cells were attached to each 8-well chamber. Then, the chamber was treated with the peptide at concentrations of 1, 10, 25, 50, 100, 200, 400, and 800 uM.

[6] = tested on: MKN45 cells; test: Dark toxicity experiment without laser irradiation; type: cell-based; settings: for dark toxicity: 0 to 100 nM and 1 μM, FIGS. 8A and 8B
Protocol: To analyze cytotoxicity through photodynamic therapy, MKN45 cells were treated with Ce6 and the Ce6-peptide at concentrations of 0, 1, 5, 10, 20, 50, 100 nM, […]

[7] = tested on: MKN45 xenograft mouse model; test: Local tumor treatment efficacy through peptide and laser irradiation; type: in vivo, mice; settings: for body weight during the treatment period: laser 200 J
Protocol: To confirm local tumor treatment efficacy using the peptide, an experiment was performed by dividing the mice in Example 6 into four groups: an untreated group, a group irradiated with a laser beam, a group irradiated with a laser beam after Ce6 administration, and a group irradiated with a laser beam after Ce6-peptide administration. Ce6 and the Ce6-peptide were administered at a concentration of 5 mg/kg into the tail vein. When 4 hours elapsed, the tumor area was irradiated with a laser beam for 9 minutes under conditions based on 200 J and 300 mW.

[8] = tested on: AGS, MKN45, and MKN28 gastric cancer cell lines and CCD841 normal cells; test: Cellular uptake of Ce6-peptide; type: cell-based; settings: 10 uM; FIG. 7
Protocol: (§2) To confirm the tumor-targeting and therapeutic efficacies of the peptide, photodynamic therapy using chlorin e6 (Ce6), a photosensitizer, was performed. First, to confirm the degree of cellular uptake of Ce6-peptide, AGS, MKN45, and MKN28, gastric cancer cell lines, and CCD841 cells, normal cells, were each independently treated with the Ce6-peptide at a concentration of 10 uM.

[9] = tested on: MKN45 xenograft mouse model; test: Ex vivo tumor-targeting analysis of extracted organs (IVIS); type: in vivo, mice; settings: organs extracted 4 hours after injection, 5 mg/kg
Protocol: To confirm the tumor-targeting ability of Ce6-peptide, an in vivo targeting experiment was performed on an MKN45 xenograft mouse model. Ce6 and the Ce6-peptide were injected at a concentration of 5 mg/kg into the tail vein of mice in which a tumor with a diameter of about 8 mm was developed. After 4 hours, the concentration of Ce6 in the tumor was confirmed using an in vivo imaging system (IVIS).
In addition, organs were extracted from each subject 4 hours after the injection to analyze tumor-targeting ability ex vivo using an IVIS.

[10] = tested on: MKN45 cells; test: Photodynamic therapy cytotoxicity with laser irradiation; type: cell-based; settings: laser 10 J, 500 mW, 3 cm, 2 minutes 35 seconds
Protocol: To analyze cytotoxicity through photodynamic therapy, MKN45 cells were treated with Ce6 and the Ce6-peptide at concentrations of 0, 1, 5, 10, 20, 50, 100 nM, and 1 μM and then irradiated with a laser beam based on 10 J, 500 mW, and 3 cm for 2 minutes and 35 seconds.

[11] = tested on: MKN45 cells; test: ROS detection by DCF-DA staining; type: cell-based; settings: Ce6-peptide with laser irradiation, FIG. 9
Protocol: To confirm whether cells were killed by photodynamic therapy, DCF-DA staining was performed to check whether cell death, the mechanism of the corresponding treatment, was caused by reactive oxygen species (ROS).

[12] = tested on: MKN45 intraperitoneal metastasis model; test: Peptide targeting ability in intraperitoneal metastasis model (IVIS); type: in vivo, Balb/c nude mice; settings: 5 mg/kg
Protocol: Through Example 6, the targeting ability in vivo of the peptide was confirmed in the xenograft model using MKN45, the gastric cancer cell line. Accordingly, to further verify the targeting ability in an intraperitoneal metastasis model, the same MKN45 cell line was injected intraperitoneally, and the targeting ability of the peptide was further verified.
Intraperitoneal metastasis was confirmed within two weeks by injecting 1×10^7 of the GFP-tagged MKN45 cell line into 5-week-old Balb/c nude mice. As a result, as shown in FIGS. 14A and 14B, additional infiltration of the cells into the liver, kidney, and spleen tissues and large tumors with a size of about 2 cm were observed.
To confirm the targeting ability of the peptide, modeled mice with intraperitoneal metastasis were treated with Ce6 and the Ce6-peptide at a concentration of 5 mg/kg and autopsied 4 hours after the treatment to confirm the concentration of the substance in the tissues using an IVIS.

[13] = tested on: MKN45 xenograft model; test: Targeting ability in vivo of Cy5.5-binding peptide; set-up: species or system mice; settings: FIGS. 6A and 6B
Protocol: Through Examples 1 to 3, the gastric cancer-targeting ability of the peptide was confirmed at the cellular level. Accordingly, to confirm the targeting ability in vivo, a xenograft model was created using MKN45 in 5-week-old immunodeficient mice. Then, Cy5.5-binding peptide was injected at a concentration of 50 nM into the tail vein.

[14] = molecular target: T1, LGR5 protein on gastric cancer cell lines (AGS, MKN45, MKN28) (UniProt O75473 22-907, limits assumed); test: cell fluorescence after 10 uM Ce6-peptide on AGS, MKN45 and MKN28 versus CCD841 cells
T1 construct: whole, on cells; also called LGR5 receptor; gastric cancer cell lines containing LGR5
T1 sequence (looked up): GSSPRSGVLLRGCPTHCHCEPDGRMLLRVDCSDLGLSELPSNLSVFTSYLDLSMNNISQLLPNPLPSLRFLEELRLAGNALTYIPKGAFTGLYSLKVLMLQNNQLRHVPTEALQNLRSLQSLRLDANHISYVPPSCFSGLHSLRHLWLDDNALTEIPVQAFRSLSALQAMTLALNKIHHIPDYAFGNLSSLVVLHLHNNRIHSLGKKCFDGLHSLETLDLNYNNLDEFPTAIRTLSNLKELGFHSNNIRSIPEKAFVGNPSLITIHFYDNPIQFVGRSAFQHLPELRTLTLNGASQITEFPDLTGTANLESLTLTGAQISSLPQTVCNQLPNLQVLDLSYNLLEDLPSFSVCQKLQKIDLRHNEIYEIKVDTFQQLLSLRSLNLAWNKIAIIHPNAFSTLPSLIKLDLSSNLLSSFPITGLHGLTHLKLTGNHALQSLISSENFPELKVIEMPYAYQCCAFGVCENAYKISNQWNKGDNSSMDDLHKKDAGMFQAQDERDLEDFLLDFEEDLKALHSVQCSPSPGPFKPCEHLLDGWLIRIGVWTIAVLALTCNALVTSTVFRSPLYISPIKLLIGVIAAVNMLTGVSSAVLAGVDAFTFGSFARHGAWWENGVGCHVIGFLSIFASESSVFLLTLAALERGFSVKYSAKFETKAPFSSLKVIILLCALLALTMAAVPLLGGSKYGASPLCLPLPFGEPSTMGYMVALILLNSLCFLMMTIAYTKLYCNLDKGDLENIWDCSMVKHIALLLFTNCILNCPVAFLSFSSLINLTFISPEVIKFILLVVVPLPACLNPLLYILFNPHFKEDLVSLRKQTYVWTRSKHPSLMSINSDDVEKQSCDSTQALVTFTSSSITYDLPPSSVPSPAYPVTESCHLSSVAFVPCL
Protocol: as §2

[15] = 5 mg/kg tail vein, 300 mW, 9 minutes
[16] = injected at 50 nM into the tail vein

negative control peptide: peptide made by randomly mixing the amino acid positions of the non-specific binding peptide sequence QLMRPPV (SEQ ID NO: 2); bound to FITC (also: bound to FITC (site not given here)) [reference compound]
fluorescence based on FITC attachment to tumor tissue [1]: not confirmed

STCTRSR (LGR5-targeting peptide)
attachment ability in HEK293T kidney cells [2]: not able to be confirmed
attachment ability, gastric cancer cell lines compared with CCD841 ([3]; AGS, MKN45, MKN28 vs CCD841 normal colonic epithelial cell line): better
attachment ability in the MKN45 cell line ([3]; MKN45): significantly good
fluorescence based on FITC attachment to tumor tissue [1]: significantly high

FITC-peptide: peptide of SEQ ID NO: 1 bound to FITC, a fluorescent material (STCTRSR; also: bound to FITC (site not given here))
FITC fluorescence density value, MKN45 compared with CCD841 [4]: increased in a concentration-dependent manner
concentration from which fluorescence density was saturated in all cells ([5]; CCD841 and MKN45 cells): ≥ 100 UM
concentration at which the difference in fluorescence density values between CCD841 and MKN45 cells was the largest ([5]; treated at 1 to 800 uM): 25 UM

Ce6-peptide: peptide of SEQ ID NO: 1 bound to chlorin e6 (Ce6), a photosensitizer (STCTRSR; also: bound to chlorin e6 (site not given here))
dark toxicity [6]: significant toxicity was not induced
cells killed ([6]; 1 μM): 60%
body weight during the treatment period [7, 15]: No change in body weight was observed
time after the treatment at which tumor necrosis was observed ([7]; 5 mg/kg tail vein, laser after 4 hours, 200 J, 300 mW, 9 minutes): 2 days
tumor size compared with the other groups ([7]; on the 7th day, 5 mg/kg plus laser, FIGS. 12A and 12B): significantly reduced
fluorescence density, gastric cancer cell lines compared with normal cell line [8]: higher
tumor-targeting ability ex vivo compared with Ce6 alone [9]: significantly better
concentration from which cells were rapidly killed [10]: ≥ 50 nM
ROS detection [11]: detected in a concentration-dependent manner
concentration in the kidney ([12]; 4 hours after the treatment): high concentration in the kidney
excretion from the body compared with Ce6 alone ([12]; 4 hours after the treatment): more likely to be excreted from the body
non-specific binding to other organs compared with Ce6 alone ([12]; 4 hours after the treatment): less likely to non-specifically bind to other organs
tumor-targeting ability compared with Ce6 alone ([12]; autopsied 4 hours after the treatment, FIGS. 15A and 15B): better

OO [hydrogen peroxide, reference compound]
ROS detection [11]: ROS was detected

Cy5.5-binding peptide: peptide of SEQ ID NO: 1 bound to Cy5.5, a fluorescent material (STCTRSR; also: bound to Cy5.5 (site not given here))
tumor-targeting ability compared with the control peptide group [13]: further better tumor-targeting ability
fluorescence density in the tumor tissue [13, 16]: significantly high fluorescence density
fluorescence in other organs (heart, lung, liver, spleen, kidney) [13, 16]: poorly detected

chlorin e6 [Ce6, reference compound]
dark toxicity [6]: significant toxicity was not induced
body weight during the treatment period [7, 15]: No change in body weight was observed
infiltration into the tumor compared with other organs (heart, lung, liver, spleen, kidney) ([9]; FIGS. 11A and 11B): more infiltrated into the tumor than into other organs
cell killing with laser irradiation [10]: cells were not killed

B1: Ce6-peptide (STCTRSR peptide of SEQ ID NO: 1 bound to chlorin e6) (peptide)
peptide: STCTRSR
modifications: also: chlorin e6 bound to the peptide (site not given here)
notes: also called photosensitizer-peptide composite
fold difference in uptake (fluorescence density), gastric cancer cell lines versus normal CCD841 cells [14]: ≥ 11 times
